Assays:
Assay type in all cases: in vivo
[1] = tested on: barnyardgrass (Echinochloa crus-galli); test: Test B pre-/postemergence plant response
Method in brief: (§1)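 Visual injury rating, 0 (no effect) to 100 (complete control), vs untreated controls after ~10 d greenhouse. Pre: directed soil spray after planting in loam/sand. Post: plants 2–10 cm, 1–2 leaf stage. Compound in non-phytotoxic solvent plus surfactant.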

corn (Zea mays) = test: Test B pre-/postemergence plant response; conditions: 0 to 100 scale, 0 no effect, 100 complete control
Method in brief: as §1

[2] = tested on: giant foxtail (Setaria faberii); test: Test B pre-/postemergence plant response
Method in brief: as §1

[3] = tested on: pigweed (Amaranthus retroflexus); test: Test B pre-/postemergence plant response
Method in brief: as §1

[4] = tested on: wheat (Triticum aestivum); test: Test B pre-/postemergence plant response; conditions: 0 to 100 scale, 0 no effect, 100 complete control
Method in brief: as §1

[5] = tested on: barnyardgrass (Echinochloa crus-galli); test: Test C flooded paddy test plant response; conditions: Flood, 250 g ai/ha; scale of 0 to 100 where 0 is no effect and 100 is complete control; 13 to 15 days
Method in brief: (§2)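 Flooded-pot format, 3 cm water over soil maintained for the test duration; test compounds dispensed into the water at the 2-leaf stage. Greenhouse holding 13 to 15 days. Plants evaluated visually relative to untreated controls, 0 meaning no effect and 100 complete control.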

[6] = tested on: ducksalad (Heteranthera limosa); test: Test C flooded paddy test plant response; conditions: Flood, 250 g ai/ha; scale of 0 to 100 where 0 is no effect and 100 is complete control; 13 to 15 days
Method in brief: as §2

rice (Oryza sativa) = test: Test C flooded paddy test plant response; conditions: Flood, 250 g ai/ha; scale of 0 to 100 where 0 is no effect and 100 is complete control; 13 to 15 days
Method in brief: as §2

[7] = tested on: small-flower umbrella sedge (Cyperus difformis); test: Test C flooded paddy test plant response; conditions: Flood, 250 g ai/ha; scale of 0 to 100 where 0 is no effect and 100 is complete control; 13 to 15 days
Method in brief: as §2

[8] = tested on: blackgrass (Alopecurus myosuroides); test: Test D pre-/postemergence plant response
Method in brief: (§3)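 Greenhouse herbicidal response, both pre- and postemergence applications, with solvent/surfactant formulation. Postemergence plants were at 1- to 4-leaf stage. Visual scores 0–100 relative to controls, taken 13 to 15 days later.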

[9] = tested on: galium (catchweed bedstraw, Galium aparine); test: Test D pre-/postemergence plant response
Method in brief: as §3

[10] = tested on: johnsongrass (Sorghum halepense); test: Test D pre-/postemergence plant response
Method in brief: as §3

[11] = tested on: lambsquarters (Chenopodium album); test: Test D pre-/postemergence plant response
Method in brief: as §3

[12] = tested on: large (Lg) crabgrass (Digitaria sanguinalis); test: Test D pre-/postemergence plant response
Method in brief: as §3

[13] = tested on: velvetleaf (Abutilon theophrasti); test: Test D pre-/postemergence plant response
Method in brief: as §3

[14] = tested on: winter wheat (Triticum aestivum); test: Test D pre-/postemergence plant response
Method in brief: as §3

[15] = 31 g ai/ha, Postemergence, 0 to 100 scale, 0 no effect, 100 complete control
[16] = 125 g ai/ha, postemergence, 0 to 100 scale, 0 no effect, 100 complete control
[17] = Preemergence, 31 g ai/ha, 0 to 100 scale (0 no effect, 100 complete control)
[18] = Preemergence, 125 g ai/ha, 0 to 100 scale where 0 is no effect and 100 is complete control
[19] = Preemergence, 16 g ai/ha, scale 0 to 100 (0 no effect, 100 complete control)
[20] = Preemergence, 31 g ai/ha, scale 0 to 100 (0 no effect, 100 complete control)
[21] = Preemergence, 62 g ai/ha, scale 0 to 100 (0 no effect, 100 complete control)
[22] = 31 g ai/ha, Preemergence, 0 to 100 scale where 0 is no effect and 100 is complete control
[23] = Postemergence, 16 g ai/ha, scale 0 to 100 (0 no effect, 100 complete control)
[24] = Postemergence, 31 g ai/ha, scale 0 to 100 (0 no effect, 100 complete control)
[25] = Postemergence, 62 g ai/ha, scale 0 to 100, 0 no effect, 100 complete control
[26] = Postemergence, 125 g ai/ha, scale 0 to 100, 0 no effect, 100 complete control

SMILES: COc1cccc(Oc2ncc(Cl)cn2)c1-c1cc(C(F)(F)F)no1 [Compound 104]
- Plant response rating, Barnyardgrass [1, 15]: 10
- Plant response rating, Barnyardgrass [1, 16]: 60
- Barnyardgrass plant response rating [1, 17]: 20
- Plant response rating, Barnyardgrass [1, 18]: 80
- Plant response rating, Corn (corn (Zea mays); 31 g ai/ha, Postemergence): 10
- Plant response rating, Corn (corn (Zea mays); 125 g ai/ha, postemergence): 30
- Plant response rating, Foxtail, Giant [2, 15]: 20
- Plant response rating, Foxtail, Giant [2, 16]: 80
- Foxtail, Giant plant response rating [2, 17]: 40
- Plant response rating, Foxtail, Giant [2, 18]: 100
- Plant response rating, Pigweed [3, 15]: 90
- Plant response rating, Pigweed [3, 16]: 90
- Pigweed plant response rating [3, 17]: 80
- Plant response rating, Pigweed [3, 18]: 100
- Plant response rating, Wheat ([4]; 31 g ai/ha, Postemergence): 0
- Plant response rating, Wheat ([4]; 125 g ai/ha, postemergence): 10
- Barnyardgrass plant response rating [5]: 20
- Ducksalad plant response rating [6]: 75
- Rice plant response rating (rice (Oryza sativa)): 0
- Sedge, Umbrella plant response rating [7]: 80
- Plant response rating (scale 0 to 100), Blackgrass ([8]; Preemergence, 125 g ai/ha): 30
- Plant response rating, Blackgrass [8, 19]: 0
- Plant response rating, Blackgrass [8, 20]: 0
- Plant response rating, Blackgrass [8, 21]: 0
- Plant response rating (scale 0 to 100), Galium ([9]; Preemergence, 125 g ai/ha): 70
- Plant response rating, Galium [9, 19]: 90
- Plant response rating, Galium [9, 20]: 80
- Plant response rating, Galium [9, 21]: 75
- Plant response rating (scale 0 to 100), Johnsongrass ([10]; Preemergence, 125 g ai/ha): 65
- Plant response rating, Johnsongrass [10, 19]: 5
- Plant response rating, Johnsongrass [10, 20]: 20
- Plant response rating, Johnsongrass [10, 21]: 15
- Plant response rating (scale 0 to 100), Lambsquarters ([11]; Preemergence, 125 g ai/ha): 90
- Plant response rating, Lambsquarters [11, 19]: 65
- Plant response rating, Lambsquarters [11, 20]: 80
- Plant response rating, Lambsquarters [11, 21]: 90
- Plant response rating (scale 0 to 100), Crabgrass, Large ([12]; Preemergence, 125 g ai/ha): 100
- Plant response rating, Crabgrass, Large [12, 19]: 65
- Plant response rating, Crabgrass, Large [12, 20]: 85
- Plant response rating, Crabgrass, Large [12, 21]: 98
- Plant response rating (scale 0 to 100), Velvetleaf ([13]; Preemergence, 125 g ai/ha): 65
- Plant response rating, Velvetleaf [13, 19]: 25
- Plant response rating, Velvetleaf [13, 20]: 50
- Plant response rating, Velvetleaf [13, 21]: 70
- Plant response rating (scale 0 to 100), Wheat ([14]; Preemergence, 125 g ai/ha): 5
- Plant response rating, Wheat [14, 19]: 0
- Plant response rating, Wheat [14, 20]: 0
- Plant response rating, Wheat [14, 21]: 5

SMILES: Fc1ccc(Oc2ncc(Cl)cn2)c(-c2cc(C(F)F)on2)c1F [Compound 113]
- Plant response rating, Barnyardgrass [1, 15]: 60
- Plant response rating, Barnyardgrass [1, 22]: 70
- Plant response rating, Barnyardgrass [1, 16]: 90
- Plant response rating, Barnyardgrass [1, 18]: 100
- Plant response rating, Corn (corn (Zea mays); 31 g ai/ha, Postemergence): 10
- Plant response rating, Corn (corn (Zea mays); 125 g ai/ha, postemergence): 30
- Plant response rating, Foxtail, Giant [2, 15]: 60
- Plant response rating, Foxtail, Giant [2, 22]: 90
- Plant response rating, Foxtail, Giant [2, 16]: 90
- Plant response rating, Foxtail, Giant [2, 18]: 100
- Plant response rating, Pigweed [3, 15]: 100
- Plant response rating, Pigweed [3, 22]: 100
- Plant response rating, Pigweed [3, 16]: 100
- Plant response rating, Wheat ([4]; 31 g ai/ha, Postemergence): 0
- Plant response rating, Wheat ([4]; 125 g ai/ha, postemergence): 10
- Barnyardgrass plant response rating [5]: 0
- Ducksalad plant response rating [6]: 95
- Rice plant response rating (rice (Oryza sativa)): 15
- Sedge, Umbrella plant response rating [7]: 95
- Blackgrass plant response rating [8, 23]: 5
- Blackgrass plant response rating [8, 24]: 15
- Plant response rating, Blackgrass [8, 25]: 10
- Plant response rating, Blackgrass [8, 26]: 40
- Plant response rating (scale 0 to 100), Blackgrass ([8]; Preemergence, 125 g ai/ha): 80
- Plant response rating, Blackgrass [8, 19]: 10
- Plant response rating, Blackgrass [8, 20]: 40
- Plant response rating, Blackgrass [8, 21]: 70
- Galium plant response rating [9, 23]: 80
- Galium plant response rating [9, 24]: 80
- Plant response rating, Galium [9, 25]: 90
- Plant response rating, Galium [9, 26]: 90
- Plant response rating (scale 0 to 100), Galium ([9]; Preemergence, 125 g ai/ha): 90
- Plant response rating, Galium [9, 19]: 90
- Plant response rating, Galium [9, 20]: 90
- Plant response rating, Galium [9, 21]: 98
- Johnsongrass plant response rating [10, 23]: 5
- Johnsongrass plant response rating [10, 24]: 5
- Plant response rating, Johnsongrass [10, 25]: 5
- Plant response rating, Johnsongrass [10, 26]: 10
- Plant response rating (scale 0 to 100), Johnsongrass ([10]; Preemergence, 125 g ai/ha): 100
- Plant response rating, Johnsongrass [10, 19]: 10
- Plant response rating, Johnsongrass [10, 20]: 70
- Plant response rating, Johnsongrass [10, 21]: 90
- Lambsquarters plant response rating [11, 23]: 70
- Lambsquarters plant response rating [11, 24]: 85
- Plant response rating, Lambsquarters [11, 25]: 95
- Plant response rating, Lambsquarters [11, 26]: 90
- Plant response rating (scale 0 to 100), Lambsquarters ([11]; Preemergence, 125 g ai/ha): 98
- Plant response rating, Lambsquarters [11, 19]: 85
- Plant response rating, Lambsquarters [11, 20]: 98
- Plant response rating, Lambsquarters [11, 21]: 98
- Crabgrass, Large plant response rating [12, 23]: 10
- Crabgrass, Large plant response rating [12, 24]: 20
- Plant response rating, Crabgrass, Large [12, 25]: 25
- Plant response rating, Crabgrass, Large [12, 26]: 25
- Plant response rating (scale 0 to 100), Crabgrass, Large ([12]; Preemergence, 125 g ai/ha): 100
- Plant response rating, Crabgrass, Large [12, 19]: 98
- Plant response rating, Crabgrass, Large [12, 20]: 100
- Plant response rating, Crabgrass, Large [12, 21]: 100
- Velvetleaf plant response rating [13, 23]: 60
- Velvetleaf plant response rating [13, 24]: 60
- Plant response rating, Velvetleaf [13, 25]: 70
- Plant response rating, Velvetleaf [13, 26]: 70
- Plant response rating (scale 0 to 100), Velvetleaf ([13]; Preemergence, 125 g ai/ha): 100
- Plant response rating, Velvetleaf [13, 19]: 70
- Plant response rating, Velvetleaf [13, 20]: 85
- Plant response rating, Velvetleaf [13, 21]: 100
- Wheat plant response rating [14, 23]: 0
- Wheat plant response rating [14, 24]: 0
- Plant response rating, Wheat [14, 25]: 5
- Plant response rating, Wheat [14, 26]: 5
- Plant response rating (scale 0 to 100), Wheat ([14]; Preemergence, 125 g ai/ha): 20
- Plant response rating, Wheat [14, 19]: 0
- Plant response rating, Wheat [14, 20]: 5
- Plant response rating, Wheat [14, 21]: 10
